Columns and labels:
[1] = test system: blood vessel formation in the vitelline membrane of chick embryo; assay: Embryonic Vascularization Test (EVT); assay type: in vivo
Protocol: The Embryonic Vascularization Test (EVT) was performed to determine the ability of test samples to inhibit the formation of new blood vessels (antiangiogenic activity).
The normal development of a chick embryo involves the formation of an external vascular system located in the vitelline membrane which carries nutrients from the vitellus (yolk) to the developing embryo. When placed onto the vitelline membrane, antiangiogenic substances can inhibit the blood vessel formation that occurs in the vitelline membrane. Briefly, methylcellulose discs (an inert solid and transparent matrix) containing different test samples were placed on the external border of the vascular perimeter of the vitelline membrane, where the angiogenic process occurs. Vascularization was assessed 24 hours after disc deposition, and results were expressed as the percent of embryos in which blood vessel formation was affected. The blood vessel formation was considered affected when its growing path was either deviated, or diminished or when there was no growth observed beyond the disc as compared to the negative control. The results are expressed as 0, +, and ++ where 0 is for a lower response than 25 percent of the eggs; + is for a response between 25 and 50 percent; and ++ is for an antiangiogenic response observed in more than 50 percent of the eggs.
According to the endothelial cell proliferation assay, the relative effectiveness of two compounds is compared by reference to the EC50 thereof. The EC50 is the concentration of compound at which the number of endothelial cells is reduced by 50% as compared to control. The efficacy of the test samples in EVT is established by the percent of eggs with altered angiogenesis at a given inhibitor dose of 0.6 mg of copper equivalent (see FIG. 6 for examples). A comparison of the antiangiogenic activity of the compounds of the present invention with divalent metal salts (CuCl2, MgCl2, ZnCl2, CoCl2) and uncoupled alpha-amino acids, alpha-imino acids, dipeptides, and nitrogenated molecules comprising a carboxylic acid group, such as creatine, is provided to illustrate that the formation of the amino acid-copper complex gives rise to complexes having antiangiogenic activity.

Endothelial cells = assay: Endothelial cell migration assay (VEGF, modified Boyden chamber); assay type: cell-based
Protocol: The endothelial cell migration assay was performed to determine the ability of test samples to inhibit the chemotaxic activity of vascular endothelial growth factor (VEGF;R/D System, MN) using a modified Boyden chamber (Transwell™, Corning/Costar). Briefly, polyvinylidene difluoride filters (PVDF) were coated with Pronectin F (Biosources, CA), a constituent of basement membrane barrier. Boyden chambers were assembled by adding VEGF to the culture media in the lower chamber (chemoattractant). Endothelial cells suspended in cultured media in the presence or the absence of the test samples were added to the upper chamber. The chambers were then incubated for a period of 4.5 hours at 37° C. At the end of the incubation period, the cells from both side of the PVDF membrane were fixed with 3.7% formaldehyde. Cells from the upper surface of the membrane were mechanically removed, and the cells remaining on the underside of the membrane were stained with crystal violet (0.5%; Sigma). Cells were then carefully rinsed and the dye fixed to the cells was quantified with a microplate reader ([…]) after its solubilization with a solution of 50% citric acid (0.1M) in water and 50% ethanol.

## L-Asp Cu L-Asp [Compound 6]
[1]; 0.6 mg copper equivalent, percent of embryos with affected blood vessel formation, 24 hours after disc deposition
  EVT (% of inhibition): ±38% of inhibition
[1]; activity at 0.6 mg equivalent Copper
  EVT (% of inhibition): + (+ between 25-50% of inhibition)
Endothelial cells
  Cell migration activity (in words): important activity
Endothelial cells; 1.25 mmole (equivalent copper), VEGF chemoattractant, 4.5 hours
  Migration % of inhibition: 82% of inhibition
Endothelial cells; copper complexes, concentration not given, VEGF, 4.5 hours
  Cell Migration (% inhibition): 82%

From patent US20030087830A1, “Low molecular weight components of cartilage, complexes of metals with amino acids, DI-peptides and analogs thereof; processes for preparation and therapeutic uses thereof” (priority 2001, published 2003)
